The target in one experiment is T1, human DHODH (Homo sapiens, UniProt Q02127).
T1 construct: purchased Proteros PR-0044
Put plainly: DHODH Enzymatic Assay. The format is biochemical. To be noted: purified human DHODH; DCIP absorbance, end-point mode. In short, it runs like this: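 Purified human DHODH activity read as absorbance of DCIP, the terminal electron acceptor, in […] pH 7.5, 150 mM NaCl, 0.5 mM EDTA, 0.1% Triton X-100. Reaction started with a substrate mix of 20 mM DHO, 5 mM CoQ6 and 1 mM DCIP in assay buffer.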

The next experiment has as its system MOLM-13 cells. Description: MOLM-13 Cellular Assay. The format is cell-based. To be noted: Homo sapiens, 72 hours exposure, cell viability by CellTiter-Glo. As for the experimental part:
The day prior to assay set-up, cells were pelleted, resuspended in fresh media, counted, and cells were plated at 0.4×10^6 cell/mL in a T150 flask. […] Cells were exposed to different concentrations of test compounds at 37° C., 5% CO2 for 72 hours immediately after seeding.
Background: Cellular ATP, detected with luciferase, serves as a proxy for viable cell number.

Molecules are shown by their SMILES.

By EC50 is commonly meant the midpoint of the concentration-response curve.

T1 sequence (Q02127 whole entry): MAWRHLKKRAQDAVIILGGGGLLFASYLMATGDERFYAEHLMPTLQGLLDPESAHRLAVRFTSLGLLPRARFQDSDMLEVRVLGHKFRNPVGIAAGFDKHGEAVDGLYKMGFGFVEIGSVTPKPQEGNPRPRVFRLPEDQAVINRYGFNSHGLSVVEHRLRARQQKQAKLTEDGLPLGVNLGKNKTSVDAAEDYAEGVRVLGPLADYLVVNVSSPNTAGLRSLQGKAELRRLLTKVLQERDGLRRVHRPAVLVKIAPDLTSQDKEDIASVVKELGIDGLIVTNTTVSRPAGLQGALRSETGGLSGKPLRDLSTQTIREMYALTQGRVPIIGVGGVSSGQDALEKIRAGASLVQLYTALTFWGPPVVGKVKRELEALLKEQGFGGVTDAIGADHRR

With `CCn1c(CO)nn(-c2nc(O[C@@H](C)C(F)(F)F)c(C(=O)Nc3c(N(C)C)ccnc3OC)cc2F)c1=O` [Example 76, (S)-N-(4-(Dimethylamino)-2-methoxypyridin-3-yl)-6-(4-ethyl-3-(hydroxymethyl)-5-oxo-4,5-dihydro-1H-1,2,4-triazol-1-yl)-5-fluoro-2-((1,1,1-trifluoropropan-2-yl)oxy)nicotinamide], the EC50 on human DHODH stood at 3.6 nM; in the experiment on MOLM-13 cells, 27.9 nM.
For the molecule `CCn1c(CO)nn(-c2nc(O[C@@H](C)C(F)(F)F)c(C(=O)Nc3c(C)cnc(OC)c3Cl)cc2F)c1=O` [Example 40, (S)-N-(3-Chloro-2-methoxy-5-methylpyridin-4-yl)-6-(4-ethyl-3-(hydroxymethyl)-5-oxo-4,5-dihydro-1H-1,2,4-triazol-1-yl)-5-fluoro-2-((1,1,1-trifluoropropan-2-yl)oxy)nicotinamide], the EC50 came to 0.31 nM at human DHODH and 0.3 nM with MOLM-13 cells.
In the case of `CCn1c(CO)nn(-c2nc(O[C@@H](C)C(F)(F)F)c(C(=O)Nc3ncnc(C)c3Cl)cc2F)c1=O` [Example 60, (S)-N-(5-Chloro-6-methylpyrimidin-4-yl)-6-(4-ethyl-3-(hydroxymethyl)-5-oxo-4,5-dihydro-1H-1,2,4-triazol-1-yl)-5-fluoro-2-((1,1,1-trifluoropropan-2-yl)oxy)nicotinamide], the EC50 on human DHODH was 254 nM; with MOLM-13 cells, above 100 nM.
Taken in the same sequence, the figures for `CCn1c(CO)nn(-c2nc(O[C@@H](C)C(F)(F)F)c(C(=O)Nc3c(C)ccnc3Cl)cc2F)c1=O` [Example 5, (S)-N-(2-Chloro-4-methylpyridin-3-yl)-6-(4-ethyl-3-(hydroxymethyl)-5-oxo-4,5-dihydro-1H-1,2,4-triazol-1-yl)-5-fluoro-2-((1,1,1-trifluoropropan-2-yl)oxy)nicotinamide] were 1.2 nM and 2 nM.
For `CCn1c(CO)nn(-c2nc(O[C@@H](C)C(F)(F)F)c(C(=O)Nc3c(OC)ccnc3OC)cc2F)c1=O` [Example 93, N-(2,4-Dimethoxy-3-pyridyl)-6-[4-ethyl-3-(hydroxymethyl)-5-oxo-1,2,4-triazol-1-yl]-5-fluoro-2-[(1S)-2,2,2-trifluoro-1-methyl-ethoxy]pyridine-3-carboxamide], in that order: 13.8 nM and 4.14 nM.
For `CCn1c(CO)nn(-c2nc(O[C@@H](C)C(F)(F)F)c(C(=O)Nc3c(Cl)ccnc3OC)cc2F)c1=O` [Example 126, N-(4-Chloro-2-methoxy-3-pyridyl)-6-[4-ethyl-3-(hydroxymethyl)-5-oxo-1,2,4-triazol-1-yl]-5-fluoro-2-[(1S)-2,2,2-trifluoro-1-methyl-ethoxy]pyridine-3-carboxamide], in that order: 0.312 nM and 0.328 nM.
Consider `CCn1c(CO)nn(-c2nc(O[C@@H](C)C(F)(F)F)c(C(=O)Nc3c(OC)cc(C)nc3C)cc2F)c1=O` [Example 103, 6-[4-ethyl-3-(hydroxymethyl)-5-oxo-1,2,4-triazol-1-yl]-5-fluoro-N-(4-methoxy-2,6-dimethyl-3-pyridyl)-2-[(1S)-2,2,2-trifluoro-1-methyl-ethoxy]pyridine-3-carboxamide], for which the values for the EC50 at human DHODH and in the experiment with MOLM-13 cells were above 100 nM and 17.3 nM, respectively.
Consider `CCn1c(CO)nn(-c2nc(O[C@@H](C)C(F)(F)F)c(C(=O)Nc3cc(OC)ccc3F)cc2F)c1=O` [Example 47, (S)-6-(4-Ethyl-3-(hydroxymethyl)-5-oxo-4,5-dihydro-1H-1,2,4-triazol-1-yl)-5-fluoro-N-(2-fluoro-5-methoxyphenyl)-2-((1,1,1-trifluoropropan-2-yl)oxy)nicotinamide], for which the EC50 at human DHODH was found to be 13.5 nM; in the experiment on MOLM-13 cells, 6.9 nM.
For `CCn1c(C(C)(C)O)nn(-c2nc(O[C@@H](C)C(F)(F)F)c(C(=O)Nc3c(C)n[nH]c3C(F)(F)F)cc2F)c1=O` [Example 128, 6-[4-Ethyl-3-(1-hydroxy-1-methyl-ethyl)-5-oxo-1,2,4-triazol-1-yl]-5-fluoro-N-[3-methyl-5-(trifluoromethyl)-1H-pyrazol-4-yl]-2-[(1S)-2,2,2-trifluoro-1-methyl-ethoxy]pyridine-3-carboxamide], in that order: 9.55 nM and 4.46 nM.
Taken in the same sequence, the figures for `CCn1c(CO)nn(-c2nc(O[C@@H](C)C(F)(F)F)c(C(=O)Nc3nc(OC)ncc3F)cc2F)c1=O` [Example 82, 6-[4-Ethyl-3-(hydroxymethyl)-5-oxo-1,2,4-triazol-1-yl]-5-fluoro-N-(5-fluoro-2-methoxy-pyrimidin-4-yl)-2-[(1S)-2,2,2-trifluoro-1-methyl-ethoxy]pyridine-3-carboxamide] were 729 nM and above 100 nM.
For the molecule `CCn1c(CO)nn(-c2nc(O[C@@H](C)C(F)(F)F)c(C(=O)Nc3cc(C)cnc3C)cc2F)c1=O` [Example 51, (S)-N-(2,5-Dimethylpyridin-3-yl)-6-(4-ethyl-3-(hydroxymethyl)-5-oxo-4,5-dihydro-1H-1,2,4-triazol-1-yl)-5-fluoro-2-((1,1,1-trifluoropropan-2-yl)oxy)nicotinamide], the results for the EC50 at human DHODH and in the experiment on MOLM-13 cells were 6.4 nM and 52.4 nM, respectively.
For `CCn1c(CO)nn(-c2nc(O[C@@H](C)C(F)(F)F)c(C(=O)Nc3c(OC)cncc3OC)cc2F)c1=O` [Example 122, N-(3,5-Dimethoxy-4-pyridyl)-6-[4-ethyl-3-(hydroxymethyl)-5-oxo-1,2,4-triazol-1-yl]-5-fluoro-2-[(1S)-2,2,2-trifluoro-1-methyl-ethoxy]pyridine-3-carboxamide], in that order: above 100 nM and 9.1 nM.
Taken in the same sequence, the figures for `CCn1c(CO)nn(-c2nc(O[C@@H](C)C(F)(F)F)c(C(=O)Nc3cc(C#N)ccc3Cl)cc2F)c1=O` [Example 74, (S)-N-(2-Chloro-5-cyanophenyl)-6-(4-ethyl-3-(hydroxymethyl)-5-oxo-4,5-dihydro-1H-1,2,4-triazol-1-yl)-5-fluoro-2-((1,1,1-trifluoropropan-2-yl)oxy)nicotinamide] were 1.7 nM and 13 nM.
For `CCn1c(CO)nn(-c2nc(O[C@@H](C)C(F)(F)F)c(C(=O)Nc3c(Cl)n[nH]c3Cl)cc2F)c1=O` [Example 123, N-(3,5-Dichloro-1H-pyrazol-4-yl)-6-[4-ethyl-3-(hydroxymethyl)-5-oxo-1,2,4-triazol-1-yl]-5-fluoro-2-[(1S)-2,2,2-trifluoro-1-methyl-ethoxy]pyridine-3-carboxamide], in that order: 2.46 nM and 0.208 nM.
As to `Cc1ccnc(Cl)c1NC(=O)c1cc(F)c(-n2nc(CF)n(C(C)C)c2=O)nc1O[C@@H](C)C(F)(F)F` [Example 86, (S)-2-(5-(((2-Chloro-4-methylpyridin-3-yl)-l2-azaneyl)carbonyl)-3-fluoro-6-((1,1,1-trifluoropropan-2-yl)oxy)pyridin-2-yl)-5-(fluoromethyl)-4-isopropyl-2,4-dihydro-3H-1,2,4-triazol-3-one], the values for the EC50 at human DHODH and in the experiment on MOLM-13 cells were 3.9 nM and 1.8 nM, respectively.
On to `CCn1c(CO)nn(-c2nc(O[C@@H](C)C(F)(F)F)c(C(=O)Nc3c(C)noc3C)cc2F)c1=O` [Example 46, (S)-N-(3,5-Dimethylisoxazol-4-yl)-6-(4-ethyl-3-(hydroxymethyl)-5-oxo-4,5-dihydro-1H-1,2,4-triazol-1-yl)-5-fluoro-2-((1,1,1-trifluoropropan-2-yl)oxy)nicotinamide], for which the EC50 came to 12.7 nM at human DHODH and 32.5 nM in the experiment with MOLM-13 cells.
For `CCn1c(CO)nn(-c2nc(O[C@@H](C)C(F)(F)F)c(C(=O)Nc3cc(C)ncc3F)cc2F)c1=O` [Example 37, (S)-6-(4-Ethyl-3-(hydroxymethyl)-5-oxo-4,5-dihydro-1H-1,2,4-triazol-1-yl)-5-fluoro-N-(5-fluoro-2-methylpyridin-4-yl)-2-((1,1,1-trifluoropropan-2-yl)oxy)nicotinamide], in that order: 200 nM and above 100 nM.
Consider `CCn1c(CO)nn(-c2nc(O[C@@H](C)C(F)(F)F)c(C(=O)Nc3c[nH]nc3C#N)cc2F)c1=O` [Example 100, N-(3-Cyano-1H-pyrazol-4-yl)-6-[4-ethyl-3-(hydroxymethyl)-5-oxo-1,2,4-triazol-1-yl]-5-fluoro-2-[(1S)-2,2,2-trifluoro-1-methyl-ethoxy]pyridine-3-carboxamide], for which the figures for the EC50 at human DHODH and in the experiment with MOLM-13 cells were above 100 nM and 19 nM, respectively.
For `CCn1c(CO)nn(-c2nc(O[C@@H](C)C(F)(F)F)c(C(=O)Nc3c(F)ccnc3OC)cc2F)c1=O` [Example 125, 6-[4-Ethyl-3-(hydroxymethyl)-5-oxo-1,2,4-triazol-1-yl]-5-fluoro-N-(4-fluoro-2-methoxy-3-pyridyl)-2-[(1S)-2,2,2-trifluoro-1-methyl-ethoxy]pyridine-3-carboxamide], in that order: 3.69 nM and 1.11 nM.
In the case of `CCn1c(CO)nn(-c2nc(O[C@@H](C)C(F)(F)F)c(C(=O)Nc3c(C)nsc3C)cc2F)c1=O` [Example 35, (S)-N-(3,5-Dimethylisothiazol-4-yl)-6-(4-ethyl-3-(hydroxymethyl)-5-oxo-4,5-dihydro-1H-1,2,4-triazol-1-yl)-5-fluoro-2-((1,1,1-trifluoropropan-2-yl)oxy)nicotinamide], the values for the EC50 at human DHODH and in the experiment with MOLM-13 cells were 1.9 nM and 6.1 nM, respectively.
With `CCCn1c(CF)nn(-c2nc(O[C@@H](C)C(F)(F)F)c(C(=O)Nc3c(C)n[nH]c3Cl)cc2F)c1=O` [Example 99, N-(5-Chloro-3-methyl-1H-pyrazol-4-yl)-5-fluoro-6-[3-(fluoromethyl)-5-oxo-4-propyl-1,2,4-triazol-1-yl]-2-[(1S)-2,2,2-trifluoro-1-methyl-ethoxy]pyridine-3-carboxamide], the EC50 was 0.975 nM on human DHODH and 0.38 nM with MOLM-13 cells.

These data come from patent US20220089568A1 (Janssen Biotech, Inc., priority 2019, published 2022).
